Series [1] relates to MDA-MB-231. As to the kind of experiment: MTT cytotoxicity assay, MDA-MB-231 (1st panel). Type of series: cell-based, human. To be noted: for IC50: Homo sapiens, MDA-MB-231, ± SD, MTT, 72 h; for selectivity index SI (MDA-MB-231): IC50 normal cell line CCD39Lu/IC50 MDA-MB-231. How it is done:
(§1) Cell survival was measured as the percentage absorbance compared to the control (nontreated cells). […]
(§2) SI indexes were calculated from equation SI = IC50 normal cell line HDF/IC50 respective cancerous cell line (Table 2). A beneficial SI > 1.0 indicates a compound with efficacy against tumor cell greater than the toxicity against normal cells.
(§3) All experiments were carried out with human breast adenocarcinoma (MDA-MB-231 and MCF-7), hepatocellular carcinoma (HepG2), human cervical adenocarcinoma (HeLa) cancer cell lines, and human normal lung fibroblast (CCD39Lu) cell line. The cell line was purchased from the European Collection of Cells Cultures (ECACC, Salisbury, UK), and cultured in DMEM with phenol red supplemented with 10% (v/v) FBS, 1% (v/v) penicillin/streptomycin, and 1% (v/v) L-glutamine at 37 °C, in a humidified atmosphere containing 5% CO2.
(§4) The tested compounds were dissolved in DMSO to the final concentration 10 mM and stored […]
(§5) The cytotoxic effect of the tested compounds was determined by MTT assay. MDA-MB-231, MCF-7, HepG2, HeLa, and CCD39Lu cells were seeded in 96 wells plates at density 2x10^4 cells/well and incubated overnight under cell culture condition. Next, cells were treated with tested compounds at concentrations of 10 µM; 5 µM; 2.5 µM; 1.2 µM; 0.6 µM; 0.3 µM; 0.15 […]
(§6) µM. Moreover, GDM (for MCF-7) and 8 (for MCF-7 and MDA-MB-231) due to high cytotoxicity, were additionally tested at a lower concentration range of 2.5 µM; 1.2 µM; 0.6 µM; 0.3 µM; 0.15µM; 0.07 µM; 0.03 µM. DMSO was used as a control, and the concentration […]
(§7) Tested compounds were added to cells in the medium without phenol red. Cells were incubated 72 h at 37 °C in a humidified atmosphere containing 5% CO2.
(§8) Then, the medium was aspirated and MTT solution at a concentration of 0.59 mg/mL in cell culture medium was added to each well. Plates were incubated for 1.5 hours at 37 °C, and then plates were centrifuged for 3 minutes. The formazan crystals were dissolved in 200 µl DMSO and plates were agitated on a plate shaker at 300 –500 rpm for 10 minutes. Absorbance at 570 nm was measured using a plate reader (Biotek Instruments, Elx -800). Data were normalized to the mean absorption of control cells. All experiments were performed at least three times. […]
A general note: Tetrazolium assays rely on reduction of a dye to a coloured formazan, in cell work by metabolically active cells.

The subject of series [2] is cancer cell lines. As to the kind of experiment: Cytotoxicity, values summarised over several cancer cell lines. Type of series: cell-based, human. How it is done: Human cancer cells SKBR-3 (human breast cancer cell line) and SKOV-3 (ovarian cancer cell line) were cultured in McCoy’s Modified Medium. Human cancer cells PC-3 (human prostate cancer cell line) were cultured in F-12K medium, as well as A549 cell line (lung cancer cell line). U-87MG cells (glioblastoma cell line) were cultured in Eagle’s Minimal Essential Medium. Human Dermal Fibroblasts cell line (HDF) was cultured in Fibroblast Basal Medium.
(§9) Each medium was supplemented with 10% fetal bovine serum, 1% L-glutamine, and 1% penicillin/streptomycin solution. The cell lines were kept in the incubator at 37◦C. The optimal plating density of cell lines was determined to be 5 × 104. All the cell lines and mediums were obtained from American Type Culture Collection (ATCC) supplied by LGC-Standards. The protein-staining SRB (Sigma-Aldrich) microculture colorimetric assay, developed by the National Cancer Institute (USA) for in vitro antitumor screening was used in this study, to estimate the cell number by providing a sensitive index of total cellular protein content, being linear to cell density. The monolayer cell culture was trypsinized and the cell count was adjusted to 5 × 10^4 cells. To each well of the 96 well microtiter plate, 0.1 mL of the diluted cell suspension (approximately […]) was added. After 24 hours, when a partial monolayer was formed, the supernatant was washed out and 100 μL of six different compound concentrations (0.1, 0.2, 1, 2, 10, and 20 μM) were added to the cells in microtitre plates. The tested compounds were dissolved in DMSO (containing 10 % of water) (100 μL) and the […]
(§10) lines. The cells were exposed to compounds for 72 hours at 37 °C in a humidified atmosphere (90% RH) containing 5% CO2. After that, 25 μL of 50 % trichloroacetic acid was added to the wells and the plates were incubated for 1 hour at 4◦C. The plates were then washed out with the distilled water to remove traces of medium and next dried by the air. The air-dried plates were stained with 100 μL of 0.4% sulforhodamine B (prepared in 1 % acetic acid) and kept for 30 minutes at room temperature. The unbound dye was removed by rapidly washing with 1% […]
(§11) acetic acid and then air dried overnight. The protein-bound dye was dissolved in 100 μL of 10 mM unbuffered Tris base (pH 10.5) for optical density determination at 490 nm. All cytotoxicity experiments were performed three times. Cell survival was measured as the percentage absorbance compared to the control (nontreated cells). Cytarabine (ara-C) and GDM were used as the internal standards. Additionally biological assays were performed in Human Dermal Fibroblasts cell line (HDF) in aim to evaluate cytotoxicity of GDM and its 1-13 analogs in healthy cells. SI indexes were calculated from equation SI = IC50 normal cell line HDF/IC50 respective cancerous cell line (Table 2). A beneficial SI > 1.0 indicates a compound with efficacy against tumor cell greater than the toxicity against normal cells.
as §3, §4, §5

The test system of series [3] is HDF. The series is described as follows: SRB cytotoxicity assay, human dermal fibroblasts HDF. Type of series: cell-based. To be noted: 72 h, ± SD, mixtures equimolar 1:1, read-out: IC50 HDF (toxicity in normal cells). On the procedure:
(§12) Medium. Human Dermal Fibroblasts cell line (HDF) was cultured in Fibroblast Basal Medium.
as §9, §10
as §11, with “normal cells. […]” for “normal cells.”

The test system of series [4] is HepG2. As to the kind of experiment: MTT cytotoxicity assay, HepG2 (1st panel). Type of series: cell-based, human. To be noted: for IC50: Homo sapiens, HepG2, ± SD, MTT, 72 h; for selectivity index SI (HepG2): IC50 normal cell line CCD39Lu/IC50 HepG2. On the procedure: as §1, §2, §3, §4, §5, §6, §7, §8
Series [5] has as its system SKBR-3. As to the kind of experiment: SRB cytotoxicity assay, SKBR-3 (2nd panel). Type of series: cell-based, human. The note with it: for IC50: Homo sapiens, SK-BR-3, ± SD, SRB, 72 h, mixtures equimolar 1:1; for selectivity index SIHDF (SKBR-3): IC50 normal cell line HDF/IC50 SKBR-3. How it is done: Human cancer cells SKBR-3 (human breast cancer cell line) and SKOV-3 (ovarian cancer cell line) were cultured in McCoy’s Modified Medium. […]
as §12, §9, §10
as §11, with “normal cells. […]” for “normal cells.”

The nature of series [6]: physchem. To be noted: water, Solubility SH2O.
[7] abbreviates: Homo sapiens, SKBR-3, SKOV-3, PC-3, U-87 and A-549, approximate level or span, read-out: IC50 in 2nd panel of cancer cell lines.

In brackets after ≈: the same amount, converted by molar mass. Read-outs that look alike come from different tables or passages of the source.

With `CO[C@H]1/C=C\C=C(/C)C(=O)NC2=CC(=O)C(NC3CCC3)=C(C[C@@H](C)C[C@H](OC)[C@H](O)[C@@H](C)/C=C(\C)[C@@H]1OC(N)=O)C2=O` [Compound 1], the IC50 in series [1] was 2.45 ± 0.78 µM; in series [2] (setting [7]) it was around 7.5 µM; in series [4] it was 1.75 ± 0.04 µM; in series [5], 7.44 ± 0.09 µM. Besides, in series [1], the “selectivity index SI (MDA-MB-231)” value is above 4.08. Moreover, the CC50 in series [3] worked out at 30 µM. The “selectivity index SI (HepG2)” value in series [4] is recorded as above 5.71. Besides, the “selectivity index SIHDF (SKBR-3)” value in series [5] was 4.03.

As to `CO[C@H]1/C=C\C=C(/C)C(=O)NC2=CC(=O)C(NC3CN4CCC3CC4)=C(C[C@@H](C)C[C@H](OC)[C@H](O)[C@@H](C)/C=C(\C)[C@@H]1OC(N)=O)C2=O` (some centres unmarked) [Compound 8], the IC50 in series [1] was 0.14 ± 0.01 µM; in series [2] (Homo sapiens, MDA-MB-231, MCF-7, HeLa and HepG2, read-out: IC50s in 1st panel of cancer cell lines), 0.1 to 1 µM; in series [2] (Homo sapiens, span over the four cell lines, read-out: IC50s in MCF-7, MDA-MB-231, A549 and HeLa), 0.09 to 1.06 µM; in series [4] it was 1.25 ± 0.22 µM; in series [5] it was 1.49 ± 0.29 µM. For the same compound, in series [1], the “selectivity index SI (MDA-MB-231)” value was determined as 6.21. In addition, in series [2] (vs CCD39Lu, Table 1), the “SI indexes (1st panel, text summary)” value was below 1. In series [3], the CC50 stood at 3.22 ± 0.18 µM. For the same compound, in series [6], the solubility (commonly the dissolved amount per volume that the medium holds) was 150 µg/mL (≈ 229 µM). Also, the “selectivity index SI (HepG2)” value in series [4] turned out to be 0.70. Moreover, the “selectivity index SIHDF (SKBR-3)” value in series [5] worked out at 2.16.

On to `C=CC[N+]12CCC(CC1)C(NC1=C3C[C@@H](C)C[C@H](OC)[C@H](O)[C@@H](C)/C=C(\C)[C@H](OC(N)=O)[C@@H](OC)/C=C\C=C(/C)C(=O)NC(=CC1=O)C3=O)C2` (some centres unmarked) [Compound 9], for which the IC50 in series [1] was 4.65 ± 2.65 µM; in series [2] (setting [7]), 2 to 3 µM; in series [4], above 10 µM; in series [5], 3.12 ± 0.01 µM. The “selectivity index SI (MDA-MB-231)” value in series [1] is given as above 2.15. Moreover, the CC50 in series [3] is around 5.29 µM. The “selectivity index SI (HepG2)” value in series [4] is given as above 1. Also, the “selectivity index SIHDF (SKBR-3)” value in series [5] came to 1.70.

Take `C/C=C/C[N+]12CCC(CC1)C(NC1=C3C[C@@H](C)C[C@H](OC)[C@H](O)[C@@H](C)/C=C(\C)[C@H](OC(N)=O)[C@@H](OC)/C=C\C=C(/C)C(=O)NC(=CC1=O)C3=O)C2` (some centres unmarked) [Compound 10]: the IC50 was 4.64 ± 1.51 µM in series [1]; around 1.7 µM in series [2] (setting [7]); 1.29 to 1.94 µM in series [2] (SKBR-3, SKOV-3, PC-3, U-87 and A-549, approximate level or span, read-out: IC50 in 2nd panel of cancer cell lines); above 10 µM in series [4]; 1.94 ± 0.52 µM in series [5]. Besides, the “selectivity index SI (MDA-MB-231)” value in series [1] is above 2.16. In series [3], the CC50 came to 2.96 ± 0.36 µM. In addition, the solubility in series [6] is above 5000 µg/mL. The “selectivity index SI (HepG2)” value in series [4] was above 1. Also, the “selectivity index SIHDF (SKBR-3)” value in series [5] is listed as 1.53.

With `CO[C@H]1/C=C\C=C(/C)C(=O)NC2=CC(=O)C(NC3C[N+]4(C/C=C/c5ccccc5)CCC3CC4)=C(C[C@@H](C)C[C@H](OC)[C@H](O)[C@@H](C)/C=C(\C)[C@@H]1OC(N)=O)C2=O` (some centres unmarked) [Compound 13], the IC50 in series [1] was 4.66 ± 2.49 µM; in series [2] (setting [7]), 2 to 3 µM; in series [2] (Homo sapiens, approximate level over the three cancer cell lines, mixtures equimolar 1:1, read-out: IC50 in SKBR-3, SKOV-3 and PC-3) it was around 2 µM; in series [4], above 10 µM; in series [5], 2.02 ± 0.11 µM. Further, in series [1], the “selectivity index SI (MDA-MB-231)” value was above 2.15. Further, the CC50 in series [3] is around 3.81 µM. Also, the solubility in series [6] was above 5000 µg/mL. The “selectivity index SI (HepG2)” value in series [4] is on record as above 1. Also, the “selectivity index SIHDF (SKBR-3)” value in series [5] is on record as 1.89.
